# Experimental data published in patent US20030114666A1, “Antibacterial agents” (priority 2001, published 2003).
# Like-named read-outs stand apart in the source and are kept apart here.
# Experiments:
# [1] = Test E pharmacokinetic behavior in rats; type: in vivo; details: male, Wistar, plasma; Rat; 1 mg/kg IV infusion in D5W over 5 minutes
# Description: (§1) Test E-Pharmacokinetic Behavior or Quinazolinediones vs. 3-Aminoquinazolinediones
# (§2) The compounds of the present invention were tested for pharmacokinetic behavior against the structurally related 3-aminoquinazolinediones in rats, dogs and monkeys. The representative result of the evaluation for compound 4b is shown in Table 6 compared to a structurally similar 3-aminoquinazolinedione.
# In this study, compounds were administered to male Wistar rats and were dosed at 1 mg/kgIV infusion in D5W over 5 minutes. Blood samples were drawn at 0, 0.083, 0.167, 0.25, 0.5, 1, 2, 4, 6, 8, 12, and 24 hours post dose.
# (§3) Plasma from all samples were harvested following centrifugaltion and stored frozen until plasma concentrations were determined using liquid chromatography/mass spectroscopy methods. The concentration/time profile for each compound in each animal species was analyzed using non-compartmental pharmacokinetic analysis approach. In the table, clearance is defined as the volume of fluid cleared of drug from the body per unit of time. Clearance is a quantitative assessment of drug elimination. Drug elimination is the irreversible removal of drug from the body by all routes of elimination.
# [2] = Test E pharmacokinetic behavior in dogs; type: in vivo; details: male, beagle, plasma; Dog; 5 mg/kg IV infusion over 15 minutes
# Description: as §1, §2
# Male Beagle Dogs were dosed with compound dissolved in D5W at 5 mg/kg IV Infusion over 15 minutes. Blood samples will be collected at 0, 0.167, 0.25, 0.33, 0.5, 1, 2, 4, 6, 8, 12 and 24 hours post dose.
# as §3
# [3] = Test E pharmacokinetic behavior in monkeys; type: in vivo, Male Cynomologous Monkeys; details: male, plasma; Monkey; 5 mg/kg IV infusion over 15 minutes
# Description: as §1, §2
# Male Cynomologous Monkeys were dosed with compound dissolved in D5W at 5 mg/kg IV Infusion over 15 minutes. Blood samples were collected at 0, 0.167, 0.25, 0.33, 0.5, 1, 2, 4, 6, 8, 12 and 24 hours post dose.
# as §3
# N. gonorrhoeae 2693 = assay: Test D cross resistance antibacterial assay (MIC); type: cell-based, Neisseria gonorrhoeae
# Description: (§4) Test D-Cross Resistance Antibacterial Assay
# (§5) The compounds of the present invention were tested against an assortment of ciprofloxacin resistant E. coli and S. aureus organisms described below using standard microtitration techniques (Cohen, et al., Antimicrob. Agents Chemother., 1985;28:766; Heifetz, et al., Antimicrob. Agents Chemother., 1974;6:124). […].
# N. gonorrhoeae 2693 (N.g. 2693): Isogenic to N. gonorrhoeae 2709 containing parC QRDR mutations [P88S and E91K].
# S. aureus UC-76 = assay: Test D cross resistance antibacterial assay (MIC); type: cell-based; details: wild type sensitive laboratory strain
# Description: as §4, §5
# S. aureus UC-76: Typical sensitive laboratory strain (Wild type).
# N. gonorrhoeae 2709 = assay: Test D cross resistance antibacterial assay (MIC); type: cell-based, Neisseria gonorrhoeae
# Description: as §4, §5
# N. gonorrhoeae 2709 (N.g. 2709): Isogenic to N. gonorrhoeae 2637 contains gyrA quinolone-resistant determining region (QRDR) mutations (S91F D95G).
# E. coli gyrase = E. coli gyrase (Escherichia coli, UniProt P0AES4+P0AES6); assay: biochemical
# S. aureus 2558 = assay: Test D cross resistance antibacterial assay (MIC); type: cell-based
# Description: as §4, §5
# S. aureus 2558: Isogenic to S. aureus 2554, with point mutation at position 84 of gyrA subunit.
# N. gonorrhoeae 2637 = assay: Test D cross resistance antibacterial assay (MIC); type: cell-based, Neisseria gonorrhoeae; details: parent strain, derivative of MS11
# Description: as §4, §5
# N. gonorrhoeae 2637 (N.g. 2637) is a derivative of Neisseria gonorrhoeae MS11 containing a TAC-LAC recA to allow for control of homologous recombination [Tonjum T. et al. Molecular Microbiology 1995, 16, 451-64].
# S. aureus 2554 = assay: Test D cross resistance antibacterial assay (MIC); type: cell-based
# Description: as §4, §5
# S. aureus 2554: Isogenic to S. aureus 2552, with point mutation at position 80 of grlA subunit.
# S. aureus 2552 = assay: Test D cross resistance antibacterial assay (MIC); type: cell-based
# Description: as §4, §5
# E. coli B90 = assay: Test A antibacterial assay, standard microtitration (MIC); type: cell-based; details: Gram negative, E. coli B90
# Description: (§6) Test A-Antibacterial Assay
# (§7) The compounds of the present invention were tested against an assortment of Gram-negative and Gram-positive organisms using standard microtitration techniques (Cohen, et al., Antimicrob. Agents Chemother., 1985;28:766; Heifetz, et al., Antimicrob. Agents Chemother:, 1974;6:124). […]
# E. coli MC 4100 = assay: as above; type: cell-based; details: Gram negative, E. coli MC 4100
# Description: as §6, §7
# E. coli Tol C = assay: as above; type: cell-based; details: for Minimum Inhibitory Concentrations E. coli Tol C: Gram negative
# Description: as §6, §7
# E. faecalis RB1 = assay: as above; type: cell-based; details: Gram positive, E. faecalis RB1
# Description: as §6, §7
# S. pyogenes C203 = assay: as above; type: cell-based; details: Gram positive, S. pyogenes C203
# Description: as §6, §7
# S. aureus 29213 = assay: as above; type: cell-based; details: Gram positive, S. aureus 29213
# Description: as §6, §7
# [4] = relative to MIC against N. g. 2637
# [5] = relative to MIC against S. aureus UC-76
# [6] = supercoiling of relaxed pBR322, 30 minutes at 37° C.
# E. coli gyrase, sequence (P0AES4 whole entry, one chain of several): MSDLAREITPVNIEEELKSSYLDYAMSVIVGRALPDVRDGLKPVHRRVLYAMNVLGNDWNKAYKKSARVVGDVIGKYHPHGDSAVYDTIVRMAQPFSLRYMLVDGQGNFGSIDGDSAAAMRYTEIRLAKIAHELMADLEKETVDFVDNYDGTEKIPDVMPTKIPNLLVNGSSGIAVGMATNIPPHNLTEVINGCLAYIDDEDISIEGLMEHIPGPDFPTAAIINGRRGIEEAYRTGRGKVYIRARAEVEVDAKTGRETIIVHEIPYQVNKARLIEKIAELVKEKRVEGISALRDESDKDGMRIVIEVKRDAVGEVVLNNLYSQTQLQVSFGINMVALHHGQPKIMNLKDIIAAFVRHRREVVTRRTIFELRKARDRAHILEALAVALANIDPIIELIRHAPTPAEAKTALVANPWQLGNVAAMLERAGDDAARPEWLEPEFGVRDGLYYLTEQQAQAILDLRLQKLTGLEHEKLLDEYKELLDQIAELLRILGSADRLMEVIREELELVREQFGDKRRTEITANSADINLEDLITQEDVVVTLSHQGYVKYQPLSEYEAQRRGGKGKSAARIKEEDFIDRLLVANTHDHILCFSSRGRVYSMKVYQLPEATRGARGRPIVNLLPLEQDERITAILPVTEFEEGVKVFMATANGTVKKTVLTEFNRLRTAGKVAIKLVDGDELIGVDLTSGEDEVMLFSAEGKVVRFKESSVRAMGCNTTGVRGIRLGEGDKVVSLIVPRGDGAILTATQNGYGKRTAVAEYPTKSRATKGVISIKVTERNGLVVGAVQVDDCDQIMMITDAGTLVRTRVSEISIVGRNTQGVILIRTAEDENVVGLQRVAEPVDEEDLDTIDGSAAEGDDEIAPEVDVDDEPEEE
Compound,IC50 (E. coli gyrase) [nM],Minimum Inhibitory Concentrations E. coli B90 (E. coli B90) [µg/mL],Minimum Inhibitory Concentrations E. coli MC 4100 (E. coli MC 4100) [µg/mL],Minimum Inhibitory Concentrations E. coli Tol C (E. coli Tol C) [µg/mL],Minimum Inhibitory Concentrations E. faecalis RB1 (E. faecalis RB1) [µg/mL],Minimum Inhibitory Concentrations S. pyogenes C203 (S. pyogenes C203) [µg/mL],Minimum Inhibitory Concentrations S. aureus 29213 (S. aureus 29213) [µg/mL],IC50 (E. coli gyrase; [6]) [nM],further results
Cc1c(N2CC[C@@H]([C@H](C)N)C2)c(F)cc2c(=O)[nH]c(=O)n(C3CC3)c12 [drawing 387],–,–,–,–,–,–,–,–,clearance [1]: 47 mL/min/kg; half-life [1]: 1.9 h; clearance [2]: 8.7 mL/min/kg; half-life [2]: 6.3 h; clearance [3]: 17 mL/min/kg; half-life [3]: 4.1 h
7-(3-[1-Amino-1-(2-fluorophenyl)methyl]pyrrolidin-1-yl}-1-cyclopropyl-6-fluoro-6-methyl-1H-quinazolinedione Hydrochloride [Example 7j],800,0.25,8.0,0.06,0.25,0.03,0.13,–,"Minimum Inhibitory Concentrations N. g. 2693 (N. gonorrhoeae 2693; gyrA plus parC QRDR mutations [P88S and E91K]): 1.0 µg/mL; MIC fold increase N. g. 2693 (in parentheses) (N. gonorrhoeae 2693; [4]): (8x); Minimum Inhibitory Concentrations S. aureus UC-76 (S. aureus UC-76): 0.06 µg/mL; Minimum Inhibitory Concentrations N. g. 2709 (N. gonorrhoeae 2709; gyrA QRDR mutations (S91F D95G)): 0.5 µg/mL; MIC fold increase N. g. 2709 (in parentheses) (N. gonorrhoeae 2709; [4]): (4x); Minimum Inhibitory Concentrations S. aureus 2558 (S. aureus 2558; norA, grlA plus point mutation at position 84 of gyrA): 0.06 µg/mL; MIC fold increase S. aureus 2558 (in parentheses) (S. aureus 2558; [5]): (1x); Minimum Inhibitory Concentrations N. g. 2637 (N. gonorrhoeae 2637): 0.13 µg/mL; Minimum Inhibitory Concentrations S. aureus 2554 (S. aureus 2554; norA plus point mutation at position 80 of grlA): 0.06 µg/mL; MIC fold increase S. aureus 2554 (in parentheses) (S. aureus 2554; [5]): (1x); MIC fold increase S. aureus 2552 (in parentheses) (S. aureus 2552; [5]): (1x); Minimum Inhibitory Concentrations S. aureus 2552 (S. aureus 2552; upregulated norA pump): 0.06 µg/mL"
"CC1COc2c(N3CC[C@@H]([C@H](C)N)C3)c(F)c(N)c3c(=O)[nH]c(=O)n1c23.Cl (stereo partly drawn) [Example 16d, 7-Amino-9-[9-(R)-3-((S)-1-aminoethyl)pyrrolidin-1-yl)-8-fluoro-3-methyl-2,3-dihydro-1-oxa-3a,5-diazaphenalene-4,6-dione Hydrochloride]",25000,16.0,>64.0,4.0,1.0,0.5,1.0,–,–
"7-[(R)-3-((S)-1-Aminoethyl)pyrrolidin-1-yl]-1-cyclopropyl-6-fluoro-5,8-dimethyl-1H-quinazolinedione Hydrochloride [Example 41c]",600,0.25,2.0,0.06,0.03,0.008,0.03,–,–
"1-Cyclopropyl-7-(5,5-difluoro-4-hydroxy-4,5,6,7-tetrahydrobenzo[b]thiophen-2-yl)-6-fluoro-8-methyl-1H-quinazolinedione [Example 23b]",–,0.13,16.0,<0.06,1.0,2.0,0.5,1000,–
"Cc1c(N2CCC(C(N)CF)C2)c(F)cc2c(=O)[nH]c(=O)n(C3CC3)c12.Cl (stereo not shown) [Example 19f, 7-[3-(1-Amino-2-fluoroethyl)pyrrolidin-1-yl]-1-cyclopropyl-6-fluoro-8-methyl-1H-quinazolinedione Hydrochloride]",–,0.25,4.0,0.13,0.06,0.06,0.13,1800,–
Cc1c(N2CC[C@@H]([C@H](C)N)C2)c(F)cc2c(=O)n(N)c(=O)n(C3CC3)c12 [reference compound],–,–,–,–,–,–,–,–,clearance [1]: 62 mL/min/kg; half-life [1]: 2 h; clearance [2]: 21 mL/min/kg; half-life [2]: 2.4 h; clearance [3]: 24 mL/min/kg; half-life [3]: 2.2 h
"Cc1c(-c2csc(CN)c2)c(F)cc2c(=O)[nH]c(=O)n(C3CC3)c12.Cl [Example 22j, 7-(5-Aminomethylthiophen-3-yl)-1-cyclopropyl-6-fluoro-8-methyl-1H-quinazoline-2,4-dione Hydrochloride]",–,–,–,–,–,–,–,1400,"MIC (E. coli B90; Escherichia coli, read-out: Minimum Inhibitory Concentrations E. coli B90): 1 µg/mL; MIC (E. coli MC 4100; Escherichia coli, MC4100, read-out: Minimum Inhibitory Concentrations E. coli MC 4100): 8 µg/mL; MIC (E. coli Tol C; Escherichia coli, read-out: Minimum Inhibitory Concentrations E. coli Tol C): 1 µg/mL; MIC (E. faecalis RB1; Enterococcus faecalis, read-out: Minimum Inhibitory Concentrations E. faecalis RB1): 2 µg/mL; MIC (S. pyogenes C203; Streptococcus pyogenes, read-out: Minimum Inhibitory Concentrations S. pyogenes C203): 0.25 µg/mL; MIC (S. aureus 29213; Staphylococcus aureus, read-out: Minimum Inhibitory Concentrations S. aureus 29213): 1 µg/mL"
7-[(R)-3-(1-Aminocyclopropyl)pyrrolidin-1-yl]-1-cyclopropyl-6-fluoro-8-methyl-1 h-quinazolinedione Hydrochloride [Example 26b],1600,0.25,2.0,0.13,0.13,0.03,0.25,–,–
